Data: paper PMC5578959, “Selective LRRK2 kinase inhibition reduces phosphorylation of endogenous Rab10 and Rab12 in human peripheral mononuclear blood cells” (Scientific Reports, 2017)

What was measured:
PIK3CB = tested on: T1, PIK3CB; test: KiNativ profiling in human PBMCs; type: binding; details: ATP
T1 construct: purchased ActivX Technologies (KiNativ)
In short: (§1)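 Cellular kinase profiling (KiNativ) was run on peripheral blood mononuclear cells incubated live with compound, tested at 1 µM and 0.1 µM.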

CDK2 = tested on: T2, CDK2; test: KiNativ profiling in human PBMCs; type: binding
T2 construct: purchased ActivX Technologies (KiNativ)
In short: as §1

PCTAIRE1,PCTAIRE3 = test: KiNativ profiling in human PBMCs; type: binding; details: Lys2
In short: as §1

PKN1 = tested on: T3, PKN1; test: KiNativ profiling in human PBMCs; type: binding
T3 construct: purchased ActivX Technologies (KiNativ)
In short: as §1

NEK1 = tested on: T4, NEK1; test: KiNativ profiling in human PBMCs; type: binding; details: Lys2
T4 construct: purchased ActivX Technologies (KiNativ)
In short: as §1

IKKe = tested on: T5, IKKe; test: KiNativ profiling in human PBMCs; type: binding; details: Lys1
T5 construct: purchased ActivX Technologies (KiNativ)
In short: as §1

PCTAIRE2 = tested on: T6, PCTAIRE2; test: KiNativ profiling in human PBMCs; type: binding; details: Lys2
T6 construct: purchased ActivX Technologies (KiNativ)
In short: as §1

PKN2 = tested on: T7, PKN2; test: KiNativ profiling in human PBMCs; type: binding; details: Lys2
T7 construct: purchased ActivX Technologies (KiNativ)

SRC = tested on: T8, SRC; test: KiNativ profiling in human PBMCs; type: binding; details: Lys1
T8 construct: purchased ActivX Technologies (KiNativ)

FAK = tested on: T9, FAK; test: KiNativ profiling in human PBMCs; type: binding; details: Activation Loop
T9 construct: purchased ActivX Technologies (KiNativ)

ITK = tested on: T10, ITK; test: KiNativ profiling in human PBMCs; type: binding; details: Activation Loop
T10 construct: purchased ActivX Technologies (KiNativ)

MARK3, MARK4 = test: KiNativ profiling in human PBMCs; type: binding; details: Lys1
LRRK2-pSer935 = biological target: T11, LRRK2-pSer935 (Homo sapiens, UniProt Q5S007); test: Acute inhibition, Western Blot, non-stimulated human PBMCs; type: cell-based
T11 construct: human primary cells expressing endogenous levels of LRRK2; endogenous in cells; host or cells: human PBMCs from healthy donors
Procedure: (§2) HEK293 cells were plated at a density of 1 × 10^6 cells/well in 6-well plates pre-coated for 1 hr at 37 °C with poly-L-lysin. Subsequent to the transient transfection HEK293 cells were harvested using 1 mL cold Phosphate Buffered Saline (PBS) buffer (Invitrogen, California, US) and subsequently centrifuged at 800 g for 2 minutes. Cell pellets were resuspended and solubilized in 100 µL lysis buffer (50 mM Tris hydrochloride, 1 mM magnesium chloride, 1% Triton, 0.1% sodium dodecyl sulfate (SDS), pH 8.0) on ice for 20 minutes and then centrifuged at 20,000 g for 30 minutes at 4 °C. The solubilized crude cell lysate was size mobility separated by SDS-polyacrylamide gel electrophoresis (SDS-PAGE). LRRK2 was separated on a 3–8% Tris-Acetate gel (NuPAGE® Tris-Acetate Mini Gels, Life Technologies, Paisley, UK) and Rab10 and Rab12 were separated using a NuPAGE® Novex 4–12% Bis-Tris Gel (Invitrogen, California, US). An amount of 10 µg total protein was loaded in each well. Proteins were transferred to immobilon-FL PVDF membranes (Millipore, Billerica, US). Membranes were incubated with primary antibodies overnight at 4 °C: mouse monoclonal [N241A/34] anti-LRRK2 antibody (1:2,000; NeuroMab, California, US), rabbit monoclonal [UDD2 10(12)] anti-pS935-LRRK2 antibody (1:1,000; RabMAb®, Abcam, Cambridge, UK), mouse anti-HA monoclonal antibody [clone HA-7] (1:10,000; Santa Cruz Biotechnology, Texas, US), rabbit anti-Rab10-pThr73 polyclonal [#5981] (1:2,000; H. Lundbeck A/S, DK) and rabbit anti-Rab12-Ser106 polyclonal antibody [#5919] (1:5,000; H. Lundbeck A/S, DK). Subsequently, the membranes were washed and incubated with secondary antibodies for 1 hour at room temperature: Anti-rabbit IgG F(c) (GOAT) antibody IRDye® 800CW Conjugated (1:10,000; Rockland Immunochemicals Inc., Gilbertsville, US) and anti-mouse Alexa Fluor® 680 Goat anti-mouse IgM (1:20,000; Life Technologies, Paisley, UK). The proteins were visually detected by infrared imaging using Odyssey CLx (LI-COR, Nebraska, US). Membranes were scanned and band intensities were quantified using the Image Studio version 3.1.4 (LI-COR, Nebraska).
(§3) PBMCs were isolated using the density gradient medium, Lymphoprep™ from Stemcell Technologies (Vancouver, Canada) following their standard protocol. Briefly, 4 ml blood was diluted with 4 ml PBS and applied at the SepMate™ tubes (Stemcell Technologies) and spun at 1200xg for 20 min at RT in the centrifuge without brakes. The PBMC layer was collected and spun at 600xg for 8 min and washed two times in PBS by spinning at 600xg between each wash. After the last wash, the cells were counted and the cellular concentration was adjusted to 50 × 10^6 cells/ml in PBS. Donor samples were treated with the LRRK2 inhibitor PFE-360 for one hour and the cells were hereafter lysed by adding 1/10 volume lysis buffer (5% Triton-X, 5% Digitonin, 10 mM EDTA) containing phosphatase and protease inhibitor cocktail (Roche Diagnostics, Mannheim, Germany). The lysates from human PBMCs were subjected to SDS-PAGE and Western Blotting procedures as described above.

Rab10-pThr73 = test: as above; type: cell-based
Procedure: as §2, §3

PKD1, PKD2 = test: KiNativ profiling in human PBMCs; type: binding; details: Lys2
CASK = tested on: T12, CASK; test: KiNativ profiling in human PBMCs; type: binding; details: Lys1
T12 construct: purchased ActivX Technologies (KiNativ)

PDHK1 = tested on: T13, PDHK1; test: KiNativ profiling in human PBMCs; type: binding; details: ATP
T13 construct: purchased ActivX Technologies (KiNativ)

p70S6Kb = tested on: T14, p70S6Kb; test: KiNativ profiling in human PBMCs; type: binding; details: Lys2
T14 construct: purchased ActivX Technologies (KiNativ)

[1] = 2 µM, 1hr, non-stimulated PBMCs, n = 6 donors
[2] = non-stimulated human PBMCs, 1 hour, n = 3

T11 sequence (Q5S007 whole entry): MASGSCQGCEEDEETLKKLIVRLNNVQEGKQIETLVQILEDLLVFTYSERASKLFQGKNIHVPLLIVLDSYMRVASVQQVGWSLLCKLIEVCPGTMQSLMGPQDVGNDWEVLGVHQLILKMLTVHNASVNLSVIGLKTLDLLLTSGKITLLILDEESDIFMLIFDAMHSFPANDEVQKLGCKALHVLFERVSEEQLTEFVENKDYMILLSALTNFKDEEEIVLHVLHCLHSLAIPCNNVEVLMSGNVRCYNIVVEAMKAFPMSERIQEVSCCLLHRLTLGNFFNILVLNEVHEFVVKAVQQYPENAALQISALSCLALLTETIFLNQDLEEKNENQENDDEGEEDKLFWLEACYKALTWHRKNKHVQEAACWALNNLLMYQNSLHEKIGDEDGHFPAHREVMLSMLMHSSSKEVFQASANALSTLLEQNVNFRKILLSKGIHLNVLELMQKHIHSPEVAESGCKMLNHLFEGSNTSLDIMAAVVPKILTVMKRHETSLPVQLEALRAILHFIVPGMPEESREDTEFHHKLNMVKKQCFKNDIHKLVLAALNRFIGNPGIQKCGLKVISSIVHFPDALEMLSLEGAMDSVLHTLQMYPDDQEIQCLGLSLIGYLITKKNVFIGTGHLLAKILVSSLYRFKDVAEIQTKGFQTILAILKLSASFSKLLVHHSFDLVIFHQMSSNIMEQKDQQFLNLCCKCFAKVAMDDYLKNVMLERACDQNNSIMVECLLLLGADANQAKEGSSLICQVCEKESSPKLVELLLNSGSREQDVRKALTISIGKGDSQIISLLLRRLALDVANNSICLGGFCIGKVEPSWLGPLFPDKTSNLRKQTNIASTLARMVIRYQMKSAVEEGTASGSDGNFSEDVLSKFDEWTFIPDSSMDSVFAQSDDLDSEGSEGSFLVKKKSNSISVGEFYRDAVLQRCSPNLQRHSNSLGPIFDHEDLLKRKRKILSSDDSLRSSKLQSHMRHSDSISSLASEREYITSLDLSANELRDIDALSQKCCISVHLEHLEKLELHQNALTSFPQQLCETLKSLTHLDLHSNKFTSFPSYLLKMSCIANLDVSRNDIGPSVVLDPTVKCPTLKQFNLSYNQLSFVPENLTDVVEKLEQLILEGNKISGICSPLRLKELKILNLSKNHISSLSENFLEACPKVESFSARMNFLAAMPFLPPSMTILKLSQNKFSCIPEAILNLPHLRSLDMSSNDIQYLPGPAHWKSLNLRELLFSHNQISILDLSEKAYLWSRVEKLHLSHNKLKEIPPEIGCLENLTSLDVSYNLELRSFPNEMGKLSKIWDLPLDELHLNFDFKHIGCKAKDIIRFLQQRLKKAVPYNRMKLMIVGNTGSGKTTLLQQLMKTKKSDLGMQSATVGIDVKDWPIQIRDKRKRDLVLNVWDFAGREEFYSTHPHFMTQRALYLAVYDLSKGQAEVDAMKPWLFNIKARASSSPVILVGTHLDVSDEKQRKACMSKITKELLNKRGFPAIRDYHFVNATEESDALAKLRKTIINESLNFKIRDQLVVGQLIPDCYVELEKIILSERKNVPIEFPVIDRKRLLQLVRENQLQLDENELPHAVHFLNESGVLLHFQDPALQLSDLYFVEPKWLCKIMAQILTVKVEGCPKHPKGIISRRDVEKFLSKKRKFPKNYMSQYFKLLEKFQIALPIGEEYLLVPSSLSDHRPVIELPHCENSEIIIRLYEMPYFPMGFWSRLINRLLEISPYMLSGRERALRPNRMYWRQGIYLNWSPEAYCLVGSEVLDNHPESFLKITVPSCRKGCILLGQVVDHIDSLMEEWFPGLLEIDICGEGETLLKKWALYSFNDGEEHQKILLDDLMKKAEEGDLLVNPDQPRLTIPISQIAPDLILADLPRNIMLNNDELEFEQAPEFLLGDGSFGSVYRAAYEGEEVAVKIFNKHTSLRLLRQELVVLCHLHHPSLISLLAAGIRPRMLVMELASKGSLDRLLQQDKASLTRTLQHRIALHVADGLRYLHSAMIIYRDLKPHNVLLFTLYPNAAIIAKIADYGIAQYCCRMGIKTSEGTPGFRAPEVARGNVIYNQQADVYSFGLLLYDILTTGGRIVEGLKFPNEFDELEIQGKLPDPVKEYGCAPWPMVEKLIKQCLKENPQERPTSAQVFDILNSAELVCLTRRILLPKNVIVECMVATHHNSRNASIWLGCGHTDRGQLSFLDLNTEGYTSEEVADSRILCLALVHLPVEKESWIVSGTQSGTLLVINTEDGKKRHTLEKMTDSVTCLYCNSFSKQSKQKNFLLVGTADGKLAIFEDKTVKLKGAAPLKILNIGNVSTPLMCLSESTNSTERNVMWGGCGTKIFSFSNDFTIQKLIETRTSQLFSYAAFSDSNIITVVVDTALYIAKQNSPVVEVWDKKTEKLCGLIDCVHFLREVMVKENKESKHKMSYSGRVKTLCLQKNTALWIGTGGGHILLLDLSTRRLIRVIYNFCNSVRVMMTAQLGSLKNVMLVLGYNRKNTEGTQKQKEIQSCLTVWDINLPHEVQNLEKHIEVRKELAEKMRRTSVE

In the case of `Cc1cccc(-c2cc(Nc3ccn(C)n3)nc3[nH]cc(C#N)c23)c1` [Lu AF58786], the Inhibition (PIK3CB; 0.1µM) is reported as 14.0%, the Inhibition (PIK3CB; 1µM) is reported as -22.3% and the Inhibition (CDK2; 0.1µM, Lys1) is reported as 5.0%. The Inhibition (CDK2; 0.1µM, Lys2) was 7.1%, the Inhibition (CDK2; 1µM, Lys1) was 9.2% and the Inhibition (CDK2; 1µM, Lys2) was 5.2%. The Inhibition (PCTAIRE1,PCTAIRE3; 0.1µM) was 5.6%, the Inhibition (PCTAIRE1,PCTAIRE3; 1µM) was -11.1% and the Inhibition (PKN1; 0.1µM, Lys1) was 18.4%. For the same molecule, the Inhibition (PKN1; 1µM, Lys1) was 13.6%, the Inhibition (NEK1; 0.1µM) was -2.3% and the Inhibition (NEK1; 1µM) was -14.0%. It also gave an Inhibition (IKKe; 0.1µM) of 8.3%, an Inhibition (IKKe; 1µM) of -0.117% and an Inhibition (PCTAIRE2; 0.1µM) of 18.1%. It also gave an Inhibition (PCTAIRE2; 1µM) of -0.164%.
In the case of `Cn1cc(-c2c[nH]c3ncnc(N4CCOCC4)c23)cc1C#N` [PFE-360], the “% Inhibition” value (PKN2; 0.1µM) is reported as -3%, the “% Inhibition” value (PKN2; 1µM) is reported as -20% and the “% Inhibition” value (SRC; 0.1µM) is reported as -31.8%. For the same molecule, the “% Inhibition” value (SRC; 1µM) was -0.3%, the “% Inhibition” value (FAK; 0.1µM) was 2.6% and the “% Inhibition” value (FAK; 1µM) was 26.4%. The “% Inhibition” value (ITK; 0.1µM) was 3.5%, the “% Inhibition” value (ITK; 1µM) was -4.7% and the “% Inhibition” value (PIK3CB; 0.1µM) was -27.2%. The “% Inhibition” value (PIK3CB; 1µM) was 12.3%, the “% Inhibition” value (CDK2; 0.1µM, Lys1) was -5.8% and the “% Inhibition” value (CDK2; 0.1µM, Lys2) was 4.2%. For the same molecule, the “% Inhibition” value (CDK2; 1µM, Lys1) was -5.5%, the “% Inhibition” value (CDK2; 1µM, Lys2) was -2.9% and the “% Inhibition” value (PCTAIRE1,PCTAIRE3; 0.1µM) was 1.3%. For the same molecule, the “% Inhibition” value (PCTAIRE1,PCTAIRE3; 1µM) was 11.4%, the “% Inhibition” value (PKN1; 0.1µM, Lys1) was -4.7% and the “% Inhibition” value (PKN1; 0.1µM, Lys2) was -3.5%. The “% Inhibition” value (PKN1; 1µM, Lys1) was -10.8%, the “% Inhibition” value (PKN1; 1µM, Lys2) was -25.9% and the “% Inhibition” value (NEK1; 0.1µM) was 5.9%. The “% Inhibition” value (NEK1; 1µM) was 2.6%, the “% Inhibition” value (IKKe; 0.1µM) was 2.3% and the “% Inhibition” value (IKKe; 1µM) was 7.7%. The “% Inhibition” value (PCTAIRE2; 0.1µM) was -2.4%, the “% Inhibition” value (PCTAIRE2; 1µM) was -5.2% and the “% Inhibition” value (MARK3, MARK4; 0.1µM) was 0.7%. For the same molecule, the “% Inhibition” value (MARK3, MARK4; 1µM) was 3.6%, the LRRK2 inhibition (LRRK2-pSer935; 2 µM, 1hr, non-stimulated PBMCs) was “full LRRK2 inhibition” and the “LRRK2-pSer935 levels vs PBS-treated PBMC samples” value (LRRK2-pSer935; [1]) was “significantly lower”. The IC50 (LRRK2-pSer935; [2]) was 24 nM, the “pIC50 ± SEM, LRRK2-pSer935” value (LRRK2-pSer935; [2]) was 7.6 ± 0.3 (n = 3) and the “Rab10-pThr73 levels vs PBS-treated PBMC samples” value (Rab10-pThr73; [1]) was “significantly lower”. For the same molecule, the IC50 (Rab10-pThr73; [2]) was 12 nM, the “pIC50 ± SEM, Rab10-pThr73” value (Rab10-pThr73; [2]) was 7.9 ± 0.3 (n = 3) and the “% Inhibition” value (PKD1, PKD2; 0.1µM) was 13.1%. For the same molecule, the “% Inhibition” value (PKD1, PKD2; 1µM) was -5.9%, the “% Inhibition” value (CASK; 0.1µM) was 4.6% and the “% Inhibition” value (CASK; 1µM) was 8.6%. The “% Inhibition” value (PDHK1; 0.1µM) was -3.7%, the “% Inhibition” value (PDHK1; 1µM) was -3% and the “% Inhibition” value (p70S6Kb; 0.1µM) was -6.9%. The “% Inhibition” value (p70S6Kb; 1µM) was 10.8%.
